According to ChEMBL document CHEMBL4507294, “Data for DCP probe MSD-CYP11B2” (2021):

Experiments:
[1] = target: Serine/threonine-protein kinase BRSK2 (Homo sapiens) (UniProt Q8IWQ3); conditions: Compound concentration 1000.0 nM
[2] = target: T1, Muscarinic acetylcholine receptor M2 (Homo sapiens) (UniProt P08172); conditions: Compound concentration 10.0 uM
T1 sequence (whole entry): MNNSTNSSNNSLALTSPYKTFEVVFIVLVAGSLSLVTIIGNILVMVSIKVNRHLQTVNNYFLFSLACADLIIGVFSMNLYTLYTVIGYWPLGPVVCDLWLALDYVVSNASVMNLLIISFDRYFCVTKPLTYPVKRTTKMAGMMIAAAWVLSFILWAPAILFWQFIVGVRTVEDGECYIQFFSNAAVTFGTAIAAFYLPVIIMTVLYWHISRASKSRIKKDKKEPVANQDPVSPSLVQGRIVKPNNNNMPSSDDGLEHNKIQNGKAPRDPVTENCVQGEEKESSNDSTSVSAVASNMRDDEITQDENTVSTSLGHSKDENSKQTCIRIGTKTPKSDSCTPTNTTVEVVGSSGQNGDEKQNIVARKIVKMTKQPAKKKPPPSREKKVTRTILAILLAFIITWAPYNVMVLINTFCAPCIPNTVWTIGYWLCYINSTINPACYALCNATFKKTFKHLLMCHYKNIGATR

[3] = target: Bone morphogenetic protein receptor type-1B (Homo sapiens) (UniProt O00238); conditions: Compound concentration 1000.0 nM
[4] = target: Mitogen-activated protein kinase 10 (Homo sapiens) (UniProt P53779); conditions: Compound concentration 1000.0 nM
[5] = target: NUAK family SNF1-like kinase 1 (Homo sapiens) (UniProt O60285); conditions: Compound concentration 1000.0 nM
[6] = target: Serine/threonine-protein kinase ULK3 (Homo sapiens) (UniProt Q6PHR2); conditions: Compound concentration 1000.0 nM
[7] = target: Alpha-2A adrenergic receptor (Homo sapiens) (UniProt P08913); conditions: Compound concentration 10.0 uM
[8] = target: Activin receptor type-2A (Homo sapiens) (UniProt P27037); conditions: Compound concentration 1000.0 nM
[9] = target: Calcium/calmodulin-dependent protein kinase kinase 1 (Homo sapiens) (UniProt Q8N5S9); conditions: Compound concentration 1000.0 nM
[10] = target: Ephrin type-A receptor 5 (Homo sapiens) (UniProt P54756); conditions: Compound concentration 1000.0 nM
[11] = target: 5-hydroxytryptamine receptor 7 (Homo sapiens) (UniProt P34969); conditions: Compound concentration 10.0 uM
[12] = tested on: Epidermal growth factor receptor (Homo sapiens), P00533 [L858R]; conditions: Compound concentration 1000.0 nM
[13] = target: Serine/threonine-protein kinase SIK3 (Homo sapiens) (UniProt Q9Y2K2); conditions: Compound concentration 1000.0 nM
[14] = target: Mitogen-activated protein kinase 8 (Homo sapiens) (UniProt P45983); conditions: Compound concentration 1000.0 nM
[15] = target: Proto-oncogene tyrosine-protein kinase ROS (Homo sapiens) (UniProt P08922); conditions: Compound concentration 1000.0 nM
[16] = target: Hepatocyte growth factor receptor (Homo sapiens) (UniProt P08581); conditions: Compound concentration 1000.0 nM
[17] = target: Mitogen-activated protein kinase kinase kinase 7 (Homo sapiens) (UniProt O43318); conditions: Compound concentration 1000.0 nM
[18] = tested on: Receptor-type tyrosine-protein kinase FLT3 (Homo sapiens), P36888 [D835H]; conditions: Compound concentration 1000.0 nM
[19] = target: Mitogen-activated protein kinase kinase kinase kinase 1 (Homo sapiens) (UniProt Q92918); conditions: Compound concentration 1000.0 nM
[20] = tested on: Proto-oncogene tyrosine-protein kinase receptor Ret (Homo sapiens), P07949 [V804M]; conditions: Compound concentration 1000.0 nM
[21] = target: Serine/threonine-protein kinase Sgk1 (Homo sapiens) (UniProt O00141); conditions: Compound concentration 1000.0 nM
[22] = target: Casein kinase I isoform alpha-like (Homo sapiens) (UniProt Q8N752); conditions: Compound concentration 1000.0 nM
[23] = target: Serine/threonine-protein kinase 33 (Homo sapiens) (UniProt Q9BYT3); conditions: Compound concentration 1000.0 nM
[24] = target: Receptor-interacting serine/threonine-protein kinase 4 (Homo sapiens) (UniProt P57078); conditions: Compound concentration 1000.0 nM
[25] = target: Tyrosine-protein kinase ITK/TSK (Homo sapiens) (UniProt Q08881); conditions: Compound concentration 1000.0 nM
[26] = target: Death-associated protein kinase 2 (Homo sapiens) (UniProt Q9UIK4); conditions: Compound concentration 1000.0 nM
[27] = target: Receptor tyrosine-protein kinase erbB-4 (Homo sapiens) (UniProt Q15303); conditions: Compound concentration 1000.0 nM
[28] = target: Cytoplasmic tyrosine-protein kinase BMX (Homo sapiens) (UniProt P51813); conditions: Compound concentration 1000.0 nM
[29] = target: Receptor-type tyrosine-protein kinase FLT3 (Homo sapiens) (UniProt P36888); conditions: Compound concentration 1000.0 nM
[30] = target: Sigma non-opioid intracellular receptor 1 (Homo sapiens) (UniProt Q99720); conditions: Compound concentration 10.0 uM
[31] = tested on: Epidermal growth factor receptor (Homo sapiens), P00533 [UNDEFINED MUTATION]; conditions: Compound concentration 1000.0 nM
[32] = target: Ribosomal protein S6 kinase alpha-4 (Homo sapiens) (UniProt O75676); conditions: Compound concentration 1000.0 nM
[33] = target: MAP kinase-interacting serine/threonine-protein kinase 1 (Homo sapiens) (UniProt Q9BUB5); conditions: Compound concentration 1000.0 nM
[34] = target: Ephrin type-A receptor 1 (Homo sapiens) (UniProt P21709); conditions: Compound concentration 1000.0 nM
[35] = tested on: Epidermal growth factor receptor (Homo sapiens), P00533 [UNDEFINED MUTATION]; conditions: Compound concentration 1000.0 nM; remark: listed apart in the source
[36] = target: Cyclin-dependent kinase 7 (Homo sapiens) (UniProt P50613); conditions: Compound concentration 1000.0 nM
[37] = target: Serine/threonine-protein kinase Nek4 (Homo sapiens) (UniProt P51957); conditions: Compound concentration 1000.0 nM
[38] = target: Serine/threonine-protein kinase DCLK1 (Homo sapiens) (UniProt O15075); conditions: Compound concentration 1000.0 nM
[39] = target: Serine/threonine-protein kinase pim-1 (Homo sapiens) (UniProt P11309); conditions: Compound concentration 1000.0 nM
Serine/threonine-protein kinase pim-1 (Homo sapiens), sequence (P11309 whole entry, looked up): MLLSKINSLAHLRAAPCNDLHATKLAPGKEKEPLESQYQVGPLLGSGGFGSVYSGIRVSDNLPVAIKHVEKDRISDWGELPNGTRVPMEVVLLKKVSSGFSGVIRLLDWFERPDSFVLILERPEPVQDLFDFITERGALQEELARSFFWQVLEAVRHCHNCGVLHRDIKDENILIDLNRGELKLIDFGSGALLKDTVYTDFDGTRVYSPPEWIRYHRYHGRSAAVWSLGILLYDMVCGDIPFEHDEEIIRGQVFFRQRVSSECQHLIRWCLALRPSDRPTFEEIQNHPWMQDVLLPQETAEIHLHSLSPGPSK

Proto-oncogene tyrosine-protein kinase ROS (Homo sapiens), sequence (P08922 whole entry): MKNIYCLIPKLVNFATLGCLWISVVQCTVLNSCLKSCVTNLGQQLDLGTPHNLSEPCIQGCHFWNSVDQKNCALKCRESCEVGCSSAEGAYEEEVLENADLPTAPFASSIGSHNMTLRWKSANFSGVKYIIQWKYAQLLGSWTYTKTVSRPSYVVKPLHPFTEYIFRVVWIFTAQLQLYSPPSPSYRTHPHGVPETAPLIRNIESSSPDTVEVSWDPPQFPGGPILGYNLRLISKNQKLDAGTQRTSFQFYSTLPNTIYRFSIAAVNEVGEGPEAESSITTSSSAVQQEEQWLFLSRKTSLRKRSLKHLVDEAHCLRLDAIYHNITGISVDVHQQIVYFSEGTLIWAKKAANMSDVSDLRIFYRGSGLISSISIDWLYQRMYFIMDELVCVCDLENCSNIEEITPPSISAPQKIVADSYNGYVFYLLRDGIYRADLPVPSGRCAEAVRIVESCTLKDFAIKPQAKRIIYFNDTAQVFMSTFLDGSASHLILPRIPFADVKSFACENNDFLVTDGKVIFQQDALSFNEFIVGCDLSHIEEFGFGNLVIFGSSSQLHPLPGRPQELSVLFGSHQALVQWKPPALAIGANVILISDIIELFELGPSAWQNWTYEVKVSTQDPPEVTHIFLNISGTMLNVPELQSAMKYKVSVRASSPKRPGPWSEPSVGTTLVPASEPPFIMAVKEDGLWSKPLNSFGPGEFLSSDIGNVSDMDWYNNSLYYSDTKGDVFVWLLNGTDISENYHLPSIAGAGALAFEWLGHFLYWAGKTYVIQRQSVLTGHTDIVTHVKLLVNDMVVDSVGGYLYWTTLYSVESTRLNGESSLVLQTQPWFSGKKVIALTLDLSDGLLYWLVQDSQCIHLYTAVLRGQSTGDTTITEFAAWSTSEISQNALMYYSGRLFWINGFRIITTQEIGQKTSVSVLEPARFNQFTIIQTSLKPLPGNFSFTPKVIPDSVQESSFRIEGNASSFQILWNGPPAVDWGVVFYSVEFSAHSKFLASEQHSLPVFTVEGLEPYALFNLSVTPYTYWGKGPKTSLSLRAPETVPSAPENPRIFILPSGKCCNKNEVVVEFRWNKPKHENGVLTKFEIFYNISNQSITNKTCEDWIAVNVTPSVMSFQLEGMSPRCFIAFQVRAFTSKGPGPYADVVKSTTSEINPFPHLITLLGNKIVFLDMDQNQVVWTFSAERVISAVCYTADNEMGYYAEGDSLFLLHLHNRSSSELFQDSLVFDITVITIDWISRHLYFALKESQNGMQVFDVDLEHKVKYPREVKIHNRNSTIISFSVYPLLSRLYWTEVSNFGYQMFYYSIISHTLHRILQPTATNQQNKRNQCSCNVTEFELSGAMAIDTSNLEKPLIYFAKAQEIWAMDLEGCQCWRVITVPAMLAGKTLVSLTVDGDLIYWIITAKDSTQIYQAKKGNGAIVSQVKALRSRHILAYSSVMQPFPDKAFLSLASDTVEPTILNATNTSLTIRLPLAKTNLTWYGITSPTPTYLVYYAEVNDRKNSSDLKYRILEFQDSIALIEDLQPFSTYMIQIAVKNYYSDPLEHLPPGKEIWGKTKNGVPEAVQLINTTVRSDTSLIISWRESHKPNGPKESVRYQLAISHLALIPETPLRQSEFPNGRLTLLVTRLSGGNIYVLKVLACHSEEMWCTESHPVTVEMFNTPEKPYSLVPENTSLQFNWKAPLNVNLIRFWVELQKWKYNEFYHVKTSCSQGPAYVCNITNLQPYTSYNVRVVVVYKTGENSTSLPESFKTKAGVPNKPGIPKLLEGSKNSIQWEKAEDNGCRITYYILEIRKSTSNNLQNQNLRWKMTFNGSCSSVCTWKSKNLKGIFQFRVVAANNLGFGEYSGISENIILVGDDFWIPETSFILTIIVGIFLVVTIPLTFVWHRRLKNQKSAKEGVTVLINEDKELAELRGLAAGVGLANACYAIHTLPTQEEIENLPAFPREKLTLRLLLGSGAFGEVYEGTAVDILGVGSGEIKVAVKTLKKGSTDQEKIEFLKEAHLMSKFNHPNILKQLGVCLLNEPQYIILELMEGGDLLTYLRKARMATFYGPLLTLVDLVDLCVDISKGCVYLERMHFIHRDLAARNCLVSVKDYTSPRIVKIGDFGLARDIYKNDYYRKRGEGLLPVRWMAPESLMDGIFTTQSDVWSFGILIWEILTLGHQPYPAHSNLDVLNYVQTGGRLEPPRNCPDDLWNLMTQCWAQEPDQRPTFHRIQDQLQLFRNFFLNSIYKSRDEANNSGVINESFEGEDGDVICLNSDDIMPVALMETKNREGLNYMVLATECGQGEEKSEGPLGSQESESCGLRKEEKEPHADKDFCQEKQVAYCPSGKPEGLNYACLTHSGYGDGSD
Ephrin type-A receptor 1 (Homo sapiens), sequence (P21709 whole entry): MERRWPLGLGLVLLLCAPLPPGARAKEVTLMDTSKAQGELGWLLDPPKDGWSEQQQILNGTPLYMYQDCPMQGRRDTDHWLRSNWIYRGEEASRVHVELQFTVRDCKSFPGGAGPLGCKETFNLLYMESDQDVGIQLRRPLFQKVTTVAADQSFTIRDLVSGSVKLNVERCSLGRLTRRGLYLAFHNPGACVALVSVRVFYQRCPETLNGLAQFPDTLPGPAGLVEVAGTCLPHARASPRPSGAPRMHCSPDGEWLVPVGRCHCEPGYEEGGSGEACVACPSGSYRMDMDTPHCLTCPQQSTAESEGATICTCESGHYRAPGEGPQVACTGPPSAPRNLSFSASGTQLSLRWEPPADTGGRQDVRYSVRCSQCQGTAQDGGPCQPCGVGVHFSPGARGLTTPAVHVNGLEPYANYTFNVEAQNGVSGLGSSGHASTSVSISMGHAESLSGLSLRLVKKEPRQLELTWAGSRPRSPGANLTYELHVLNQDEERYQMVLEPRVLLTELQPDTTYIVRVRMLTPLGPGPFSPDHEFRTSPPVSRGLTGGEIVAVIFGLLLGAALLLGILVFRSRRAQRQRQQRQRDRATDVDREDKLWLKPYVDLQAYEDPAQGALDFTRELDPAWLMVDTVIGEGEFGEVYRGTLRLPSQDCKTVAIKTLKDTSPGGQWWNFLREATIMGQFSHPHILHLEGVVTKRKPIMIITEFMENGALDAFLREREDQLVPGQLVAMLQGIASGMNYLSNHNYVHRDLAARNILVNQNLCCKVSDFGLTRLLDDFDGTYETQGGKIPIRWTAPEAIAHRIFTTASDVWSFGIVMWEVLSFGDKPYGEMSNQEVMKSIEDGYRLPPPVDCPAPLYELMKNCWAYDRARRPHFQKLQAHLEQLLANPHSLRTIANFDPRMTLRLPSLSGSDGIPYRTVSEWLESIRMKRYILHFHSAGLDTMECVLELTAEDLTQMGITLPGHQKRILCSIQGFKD
Receptor-interacting serine/threonine-protein kinase 4 (Homo sapiens), sequence (P57078 whole entry): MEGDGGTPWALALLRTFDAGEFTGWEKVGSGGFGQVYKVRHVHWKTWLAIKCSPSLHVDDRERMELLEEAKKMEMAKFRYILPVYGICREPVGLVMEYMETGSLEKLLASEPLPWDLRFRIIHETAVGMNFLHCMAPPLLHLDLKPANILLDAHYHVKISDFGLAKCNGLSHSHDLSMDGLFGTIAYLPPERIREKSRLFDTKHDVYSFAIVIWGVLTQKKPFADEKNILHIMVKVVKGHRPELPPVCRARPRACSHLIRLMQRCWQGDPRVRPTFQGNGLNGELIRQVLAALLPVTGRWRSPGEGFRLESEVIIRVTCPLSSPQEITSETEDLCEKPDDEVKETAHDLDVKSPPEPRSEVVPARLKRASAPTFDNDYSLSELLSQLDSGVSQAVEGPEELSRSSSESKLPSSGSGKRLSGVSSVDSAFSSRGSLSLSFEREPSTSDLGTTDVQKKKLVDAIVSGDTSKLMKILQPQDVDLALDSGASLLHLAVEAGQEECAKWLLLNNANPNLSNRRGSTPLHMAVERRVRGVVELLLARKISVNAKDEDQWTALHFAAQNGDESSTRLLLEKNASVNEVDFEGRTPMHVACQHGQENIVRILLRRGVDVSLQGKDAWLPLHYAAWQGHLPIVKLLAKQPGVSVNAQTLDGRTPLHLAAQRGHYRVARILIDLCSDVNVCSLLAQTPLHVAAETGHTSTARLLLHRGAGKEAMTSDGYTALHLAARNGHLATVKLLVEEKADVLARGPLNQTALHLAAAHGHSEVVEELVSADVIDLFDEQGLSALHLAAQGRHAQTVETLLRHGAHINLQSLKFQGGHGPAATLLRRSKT
Mitogen-activated protein kinase kinase kinase 7 (Homo sapiens), sequence (O43318 whole entry): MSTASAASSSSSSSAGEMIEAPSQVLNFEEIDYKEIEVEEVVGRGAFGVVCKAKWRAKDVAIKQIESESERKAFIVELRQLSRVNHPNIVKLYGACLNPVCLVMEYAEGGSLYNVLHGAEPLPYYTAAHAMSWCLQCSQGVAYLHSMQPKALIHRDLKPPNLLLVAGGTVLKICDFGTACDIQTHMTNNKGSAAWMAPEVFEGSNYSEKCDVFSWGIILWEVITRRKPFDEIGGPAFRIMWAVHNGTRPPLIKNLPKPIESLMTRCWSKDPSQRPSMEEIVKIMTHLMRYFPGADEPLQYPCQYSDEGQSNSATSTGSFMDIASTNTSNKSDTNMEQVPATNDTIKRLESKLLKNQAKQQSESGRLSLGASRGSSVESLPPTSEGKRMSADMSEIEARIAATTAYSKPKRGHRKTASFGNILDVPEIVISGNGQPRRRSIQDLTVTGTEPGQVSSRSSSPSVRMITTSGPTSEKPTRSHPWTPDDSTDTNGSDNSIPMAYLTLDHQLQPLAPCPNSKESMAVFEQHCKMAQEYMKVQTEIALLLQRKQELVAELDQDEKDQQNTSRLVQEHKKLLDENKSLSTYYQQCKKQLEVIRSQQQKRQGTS

Row | Compound | residual activity [1] [%] | inhibition [2] [%] | residual activity [3] [%] | residual activity [4] [%] | residual activity [5] [%] | residual activity [6] [%] | inhibition [7] [%] | residual activity [8] [%] | residual activity [9] [%] | residual activity [10] [%] | inhibition [11] [%] | residual activity [12] [%] | residual activity [13] [%] | residual activity [14] [%] | residual activity [15] [%] | residual activity [16] [%] | residual activity [17] [%] | residual activity [18] [%] | residual activity [19] [%] | residual activity [20] [%] | other results
1 | CC(C)(O)c1cncc(-c2nc3ccc(F)cc3n2C2CC2)c1 [MSD-CYP11B2] | 100 | -0.1 | 96 | 100 | 100 | 95 | 74.6 | 87 | 100 | 100 | -2.18 | 100 | 97 | 100 | 100 | 100 | 100 | 89 | 99 | 100 | residual activity [21]: 100%; residual activity [22]: 100%; residual activity [23]: 100%; residual activity [24]: 100%; residual activity [25]: 100%; residual activity [26]: 100%; residual activity [27]: 100%; residual activity [28]: 100%; residual activity [29]: 93%; inhibition [30]: 27.7%; residual activity [31]: 100%; residual activity [32]: 91%; residual activity [33]: 100%; residual activity [34]: 100%; residual activity [35]: 100%; residual activity [36]: 88%; residual activity [37]: 100%; residual activity [38]: 88%; residual activity [39]: 92%
2 | FC(F)(F)c1ccc2c(c1)nc(-c1cccnc1)n2C1CC1 [MSD-CYP11B2-Negative-control] | 90 | 2.99 | 83 | 100 | 100 | 100 | 6.92 | 100 | 100 | 96 | 0.88 | 91 | 100 | 93 | 100 | 100 | 100 | 69 | 93 | 100 | residual activity [21]: 100%; residual activity [22]: 100%; residual activity [23]: 100%; residual activity [24]: 95%; residual activity [25]: 100%; residual activity [26]: 100%; residual activity [27]: 100%; residual activity [28]: 100%; residual activity [29]: 93%; inhibition [30]: 16.9%; residual activity [31]: 100%; residual activity [32]: 99%; residual activity [33]: 100%; residual activity [34]: 100%; residual activity [35]: 100%; residual activity [36]: 100%; residual activity [37]: 100%; residual activity [38]: 84%; residual activity [39]: 94%
